# Measurements: the CATMoS acute toxicity set (Mansouri et al. 2021)
# Assay: GHS categories as the set defines them, by LD50: 1 up to 5, 2 up to 50, 3 up to 300, 4 up to 2000, 5 above 2000 mg/kg
# Details: rat; in vivo; po
# Source text: […]The data set underlying the modeling effort for this project was initially compiled by NICEATM and U.S. EPA’s CCTE. Briefly, LD50 data were collected from rat acute oral systemic toxicity tests, including limit tests, ranges/confidence intervals, and discrete LD50 values. The full data set included 21,200 LD50 entries for 15,688 substances. […] Data were reviewed to ensure that LD50 values with obvious errors in the extracted data such as unit conversion errors (e.g., comma and decimal separator misplacements) were either fixed or removed. After this review, 16,209 LD50 values remained. Many of the chemicals represented had multiple LD50 entries, requiring that a single representative value per Chemical Abstracts Service Registry Number (CASRN) identifier be defined to facilitate modeling efforts. Based on ATWG feedback and to define the representative LD50 as a protective value while accounting for the distribution across multiple LD50s, the median of the lowest quartile was computed using only discrete LD50 values (omitting limit test data and range and confidence interval data). A detailed summary of the data compilation is available online on the NICEATM webpage dedicated to the collaborative modeling project (NTP 2020).
# […][…] For categorical designations, limit test and range/confidence interval LD50 data were integrated wherever possible. As such, the number of chemicals with end point values/calls varies across the modeling end points (Table 3) based on whether chemicals had representative LD50 values and/or other data. If a chemical had both, the representative value was used to determine categorical calls rather than limit test data. Some data were useable only for certain end points and categories depending on the thresholds. For example, ranges that spanned multiple hazard categories were considered only for the binary (very toxic/nontoxic) end points and omitted from rendering a determination for hazard category assignment.
# […]The final data set comprising 11,992 chemicals was split into training and evaluation sets […], respectively. This process was performed semirandomly by ordering chemicals based on the five end points (categorical and continuous LD50 values) and partitioning every fourth record into the evaluation set accordingly. This approach was taken to ensure an equivalent distribution of the LD50 values and the different hazard categories between the training and the evaluation sets without supervised sampling of the chemicals based on structures (Figure 1A). The sources of the chemical structures were also kept equivalent between the two sets, with chemical structures obtained from DSSTox, being the highest quality, representing over 75% of each set (Figure 1B).
row,SMILES,GHS category
1,O=c1oc2ccc(Cl)cc2n1CO,4
2,CCCCOc1ccc(-c2ccc(C#N)cc2)cc1,5
3,O=C1CCc2cc(OCCCCc3nnnn3C3CCCCC3)ccc2N1,5
4,COc1ccccc1C1NC(=O)CCS1 (stereo unspecified),5
5,CCCCCCCOCC(COCCCCCCC)(COCCCCCCC)COCCCCCCC,5
6,CCOC(=O)C(=O)Nc1cc(OC)nc(-c2ccccc2)n1,4
7,N#CNC1=NCCS1,4
8,Cc1[nH]c2ccc(O)cc2c1CC(=O)OCC(=O)O,5
9,CCOC(=O)c1ccnc(C(=O)OCC)c1,5
10,O=P(O)(O)c1ccccc1,5
11,CC(=O)OC1CC[C@H]2[C@@H]3CC[C@H]4CC(=O)C=C(C)[C@]4(C)[C@H]3CC[C@]12C (stereo partly specified),5
12,CC/C=C\CC(C)OC(=O)c1ccccc1O (stereo unspecified),5
13,O=S(=O)(O)c1cccc(Nc2nc(NCCO)nc(Nc3ccc(/C=C/c4ccc(Nc5nc(NCCO)nc(Nc6cccc(S(=O)(=O)O)c6)n5)cc4S(=O)(=O)O)c(S(=O)(=O)O)c3)n2)c1,5
14,O=C(OCCCc1ccccc1)c1ccccc1,5
15,B12B3B4B1C234,5
16,O=C(O)c1ccc(OCCn2ccnc2)cc1,4
17,BrC1CC(Br)CC(Br)CC(Br)CC(Br)CC(Br)C1 (mixture of isomers),5
18,CCCC(CCC)C(=O)Oc1cc(C(C)C)ccc1C,5
19,CNc1ccc(C(C)=O)cc1O,5
20,CCOC(C)OCCc1ccccc1 (stereo unspecified),5
21,c1ccc(C2CCCCC2)cc1,5
22,CC1=CCC(C(C)(C)OC(=O)C(C)C)CC1 (stereo unspecified),5
23,CCCCCCCCCCCc1ccccc1,5
24,O=C(C(Cl)Cl)N(CCO)Cc1ccc(Oc2ccc([N+](=O)[O-])cc2)cc1,5
25,CC(C)C(O)C(C)(C)CO (stereo unspecified),5
26,CCCOC(C)OCCC,5

row,SMILES,GHS category
1,O=C1OC(CN2CCCCC2)CC12CC(CN1CCCCC1)OC2=O (stereo unspecified),5
2,Cc1ccccc1OC(=O)c1cc(Cl)ccc1OC(N)=O,5
3,CCCCCCCCCCCCCCCC(=O)O,5
4,C=C(C)C(C)(C)Cc1ccc(Nc2ccc(CC(C)(C)C(=C)C)cc2)cc1,5
5,Nc1cc(Cl)nc(C(=O)O)c1Cl,5
6,Cc1cccc2c1NC(=O)C2(c1ccc(OS(=O)(=O)O)cc1)c1ccc(OS(=O)(=O)O)cc1,5
7,C=C(C)C(=O)OCCc1ccccc1,5
8,CN1C2CCC1CC(OS(C)(=O)=O)C2 (stereo unspecified),4
9,Clc1ccccc1-c1nc(-c2ccncc2)no1,5
10,CC(C)CCCC(C)CCCC(C)CCCCC(C)CCCC(C)CCCC(C)C (stereo unspecified),4
11,Cc1ccc(NC(=O)N(C)C)cc1NC(=O)N(C)C,5
12,Cn1c(=O)oc2ccc(Cl)cc21,5
13,CCC(=O)O[C@]1(C(=O)SCF)[C@H](C)C[C@H]2C3C[C@H](F)C4=CC(=O)C=C[C@]4(C)[C@@]3(F)[C@@H](O)C[C@@]21C (stereo partly specified),5
14,CCCCCCCCCC(=O)OCC(CC)(COC(=O)CCCCCCC)COC(=O)CCCCCCC,5
15,CCOC(=O)C(=O)Nc1ccncn1,4
16,O=C1C2C3CC(C(Br)C3Br)C2C(=O)N1CCN1C(=O)C2C3CC(C(Br)C3Br)C2C1=O (stereo unspecified),5
17,COC(=O)/C=C(/C)N[C@@H](C(=O)O)c1ccc(O)cc1,5
18,Cn1c2cc(C(F)(F)F)ccc2c2oc(C(=O)NCCCN3CCCCC3)cc21,4
19,Cn1c(=O)oc2cc(C(=O)c3cccs3)ccc21,5
20,O=C(O)CN(CCN(CC(=O)O)CC(=O)O)CCN(CC(=O)O)CC(=O)O (racemic),5
21,Cc1cc(O)c2c(O)c(-c3ccc4cc(C)cc(O)c4c3O)ccc2c1,5
22,C=C(C)C(=O)OCCOC(=O)c1ccc2c(c1)C(=O)OC2=O,5
23,FC(F)(F)OC(F)(Cl)C(F)(F)Cl (stereo unspecified),5
24,Cc1ccc2[nH]c3cc4c(=O)c5cc(C)ccc5[nH]c4cc3c(=O)c2c1,5
25,CCCCCC(=O)Nc1ccc(Cc2ccccn2)c([N+](=O)[O-])c1,3
26,CCC(CC)Nc1nnc(-c2ccccc2)c2ccccc12,5

row,SMILES,GHS category
1,Cc1ccc(C(=O)O)cc1[N+](=O)[O-],5
2,Cc1cccc(Nc2cc(Cl)nc(SCC(=O)NCCO)n2)c1C,5
3,CC(=O)Nc1cc2cccnc2c(N2CCN(CCO)CC2)n1,5
4,COCCOC(=O)C(=O)Nc1nc(-c2ccccc2)cs1,5
5,CCOC(=O)CC#N,5
6,CCC=CCC=CCC=CCC=CCCCCCCC(=O)OCC,5
7,O=S(=O)(O)CC(O)CNC1CCCCC1 (stereo unspecified),5
8,CC(C)CCC[C@@H](C)[C@H]1CC[C@H]2[C@@H]3CC=C4C[C@@H](O)CC[C@]4(C)[C@H]3CC[C@]12C,5
9,CC(=O)CC(=O)OCCOC(=O)CC(C)=O,5
10,C[Si](C)(C)C,5
11,O=C(Cc1ccccc1)Cc1ccccc1,5
12,Cc1cc(C(=O)Nc2ccccc2C(F)(F)F)n[nH]1,5
13,O=C(OCc1cncs1)Oc1ccc([N+](=O)[O-])cc1,5
14,CCOc1ccc(OC)cc1-c1nc(=O)c2cc(C(=O)O)ccc2[nH]1,4
15,CO[C@H]1C=CO[C@@]2(C)Oc3c(C)c(O)c4c(O)c(c(/C=N/N5CCN(C6CCCC6)CC5)c(O)c4c3C2=O)NC(=O)C(C)=CC=C[C@H](C)[C@H](O)[C@@H](C)[C@@H](O)[C@@H](C)[C@H](OC(C)=O)[C@@H]1C,5
16,O=C1c2ccccc2C(=O)c2c(NCCO)ccc(NCCO)c21,5
17,CC#CCC(C)[C@H](O)/C=C/C1[C@H](O)C[C@@H]2C/C(=C\CCCC(=O)O)C[C@H]12 (stereo partly specified),3
18,COc1cc(C)c(C(=O)c2c(OC)ccc(Br)c2C)c(OC)c1OC,5
19,C[C@]12C[C@@H](O)[C@H]3[C@@H](CCC4=CC(=O)CC[C@@H]43)[C@@H]1CCC2=O,4
20,CCCCCCCCCCCCCC(=O)N[C@@H](CCC(=O)O)C(=O)O,5
21,CNC(=O)C(=NNc1ccccc1[N+](=O)[O-])C(C)=O,5
22,CN1CC(CO)CC2c3cccc4c3c(cn4C(C)(C)C)CC21 (stereo unspecified),4
23,COc1ccc2c(c1)CCN(c1ccccc1)C2c1ccccc1 (stereo unspecified),4
24,CCC(C)C(C#N)(CCN(CC=C(C)C)CC=C(C)C)c1cccc2ccccc12 (stereo unspecified),4
25,CC(=O)Oc1ccc(C(=C2CCCCC2)c2ccc(OC(C)=O)cc2)cc1,5
26,O=c1nc2nc[nH]n2c(CO)c1Cc1ccc(-c2ccccc2-c2nn[nH]n2)cc1,4

row,SMILES,GHS category
1,O=C(CCc1ccc(O)cc1)Nc1ccccc1C(=O)O,5
2,CCCCNC1CC(C)(C)NC(C)(C)C1,4
3,CCCc1nc2ccnn2c(N2CCOCC2)c1Cc1ccc(-c2ccccc2-c2nn[nH]n2)cc1,4
4,Cc1nc(N)sc1C(=O)N(C(C)C)C(C)C,4
5,C=CC(=C)CCC=C(C)C,5
6,O=C=Nc1cccc2c(N=C=O)cccc12,5
7,CC(C)c1c(C(=O)Nc2ccccc2)c(-c2ccccc2)c(-c2ccc(F)cc2)n1CC[C@@H]1C[C@H](CC(=O)OC(C)(C)C)OC(C)(C)O1,5
8,NC(=O)NC(c1ccccc1)c1ccccc1,5
9,S=P(Oc1ccccc1)(Oc1ccccc1)Oc1ccccc1,5
10,CS/C(C)=N/O,4
11,N#CC1(N)CC1,4
12,COc1cc(NS(=O)(=O)c2ccccc2)c2c(c1N)C(=O)c1ccccc1C2=O,5
13,CCCc1c(Cc2ccc(-c3ccccc3-c3nn[nH]n3)cc2)c(=S)nc2nc[nH]n12,4
14,O=c1[nH]c2ccc([N+](=O)[O-])cc2[nH]1,5
15,O=C(O)NN1C(CCCOc2ccc(F)cc2)C[C@H](O)[C@@H]2CCCC[C@H]21 (stereo partly specified),5
16,COC(=O)COc1nc(F)c(Cl)c(N)c1Cl,5
17,CC(CO)(CO)C(=O)O,5
18,Cc1ccc(C(=O)Nc2ccc(S(=O)(=O)O)cc2)cc1[N+](=O)[O-],5
19,CO/C=C(/C(=O)OC)c1ccccc1Oc1cc(Oc2ccccc2C#N)ncn1,5
20,CCCCOC(=O)CCP1(=O)Oc2ccccc2-c2ccccc21 (stereo unspecified),5
21,C[C@@H]1C[C@H]2C3C[C@H](F)C4=CC(=O)C=CC4(C)[C@@]3(F)[C@@H](O)CC2(C)[C@@]1(O)C(=O)COC(=O)C(C)(C)C (stereo partly specified),5
22,Cc1cc(C(C)(C)C)c(OP2COC3(COP(Oc4c(C(C)(C)C)cc(C)cc4C(C)(C)C)OC3)OC2)c(C(C)(C)C)c1 (stereo unspecified),5
23,CNC(=O)C(=NNc1cc([N+](=O)[O-])ccc1OC)C(C)=O,5
